Test results as given in BindingDB's records for doi:10.1111/j.1471-4159.1990.tb04946.x (Schering-Plough Research Institute, 1990).

Target: Hrh3 protein (Rattus norvegicus, UniProt Q5PPG3)
Sequence (Q5PPG3 whole entry): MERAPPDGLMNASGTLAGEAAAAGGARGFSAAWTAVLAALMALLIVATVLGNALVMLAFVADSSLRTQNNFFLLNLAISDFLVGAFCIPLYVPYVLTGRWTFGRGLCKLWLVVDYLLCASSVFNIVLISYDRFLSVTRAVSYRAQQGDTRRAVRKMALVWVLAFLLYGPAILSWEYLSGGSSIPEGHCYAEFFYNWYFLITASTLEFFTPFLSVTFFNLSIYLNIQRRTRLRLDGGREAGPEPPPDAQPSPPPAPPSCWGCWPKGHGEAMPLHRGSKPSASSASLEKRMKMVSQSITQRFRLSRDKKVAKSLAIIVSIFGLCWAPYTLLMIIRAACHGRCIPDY

Row | Ki [nM] | SMILES
1 | > 10000 | COc1ccc(CN(CCN(C)C)c2ccccn2)cc1
2 | > 10000 | CN/C([CH-][N+](=O)[O-])=[NH+]\CCSCc1ccc(CN(C)C)o1
3 | 46 | Cc1[nH]cnc1CSCCNC(=N)NCCCc1c[nH]cn1 [2-[3-(1H-imidazol-5-yl)propyl]-1-(2-{[(5-methyl-1H-imidazol-4-yl)methyl]sulfanyl}ethyl)guanidine]
4 | > 10000 | C/N=C(\S)NCCSCc1[nH]cnc1C [CAS_34839-70-8]
5 | 440 | CN(C)CCCSC(=N)N [[3-(carbamimidoylsulfanyl)propyl]dimethylamine]
6 | > 10000 | CNC(=NCCSCc1csc(N=C(N)N)n1)NC#N [[3H]tiotidine]
7 | > 10000 | CN(C)CCC(c1ccc(Cl)cc1)c1ccccn1 (centres undefined) [clorfeniramina]

Continued, molecule first:

Row | SMILES | Ki [nM]
8 | CN/C(=N/CCSCc1nc[nH]c1C)NC#N | 8000
9 | C[C@@H](N)Cc1c[nH]cn1 | 1.2
10 | S=C(NC1CCCCC1)N1CCC(c2cnc[nH]2)CC1 | 16
11 | c1c[nH]cn1 | > 10000
12 | CNCCc1c[nH]cn1 [N(alpha)-Methylhistamine] | 0.45
13 | NC(Cc1c[nH]cn1)C(=O)O (centres undefined) [NSC_773] | > 10000
14 | NCCc1c[nH]cn1 [[3H]histamine] | 11
